{"source": "patent US12065404B2", "about": "“C4-carboxylic acid-substituted tryptamine derivatives and methods of using” (priority 2022, dated 2024)", "key": {"[1]": {"assay": "In vitro metabolic stability / psilocin release, liver fractions (HLM, HLS9)", "assay_type": "in vitro ADME, human", "details": "HLM and HLS9, 2 hours, 37° C.", "excerpt": "(§1) A fundamental evaluation in drug development is the assessment of absorption, distribution, metabolism, excretion, and pharmacokinetics (ADME/PK) (Eddershaw et al., 2000, Drug Discovery Today 5(9): 409-414). […] Drug stability upon exposure to human liver microsomes and liver S9 cellular fractions is a common in vitro assay to approximate in vivo, liver-based drug metabolism (Richardson et al., 2016 Drug Metabolism Letters 10:83-90). First-pass metabolism is also often approximated in vitro using intestinal microsome and cellular S9 fractions (Hatley et al., 2017, Biopharmaceuticals & Drug Disposition, 38(2):155-160). […] Supernatants were analyzed for the presence of candidate prodrugs (parent molecule) and psilocin (the predicted metabolite) using Orbitrap LC-MS (Thermo Scientific) using previously described methods (Menendez-Perdomo et al., 2021, J Mass Spectrom, 56: e4683). […] Assay concentrations (μM) of both parent ‘prodrug’ molecule and psilocin metabolite, as quantified through LC-MS using routine standard curve procedures, were plotted as functions of assay time (minutes). The metabolism rate (T1/2) was determined from the metabolism curve plot using the one phase decay feature of GraphPad PRISM software (Version 9.2.0). The quantity of parent prodrug at time zero was set as 100%. […]"}, "[2]": {"assay": "Stability in enzyme-free control buffer", "assay_type": "physicochemical", "details": "pH 7.4", "excerpt": "A fundamental evaluation in drug development is the assessment of absorption, distribution, metabolism, excretion, and pharmacokinetics (ADME/PK) (Eddershaw et al., 2000, Drug Discovery Today 5(9): 409-414). […] Drug stability upon exposure to human liver microsomes and liver S9 cellular fractions is a common in vitro assay to approximate in vivo, liver-based drug metabolism (Richardson et al., 2016 Drug Metabolism Letters 10:83-90). First-pass metabolism is also often approximated in vitro using intestinal microsome and cellular S9 fractions (Hatley et al., 2017, Biopharmaceuticals & Drug Disposition, 38(2):155-160). […] Supernatants were analyzed for the presence of candidate prodrugs (parent molecule) and psilocin (the predicted metabolite) using Orbitrap LC-MS (Thermo Scientific) using previously described methods (Menendez-Perdomo et al., 2021, J Mass Spectrom, 56: e4683). […] Assay concentrations (μM) of both parent ‘prodrug’ molecule and psilocin metabolite, as quantified through LC-MS using routine standard curve procedures, were plotted as functions of assay time (minutes). The metabolism rate (T1/2) was determined from the metabolism curve plot using the one phase decay feature of GraphPad PRISM software (Version 9.2.0). The quantity of parent prodrug at time zero was set as 100%."}, "[3]": {"assay": "Mouse pharmacokinetic (PK) study, parent compound and psilocin metabolite in plasma", "assay_type": "in vivo, C57Bl/6 mice", "details": "mouse; for Plasma concentration of psilocin: 24 h", "excerpt": "Briefly, the procedure was as follows. […] 19, 2022."}, "[4]": {"assay": "In vitro metabolic stability / psilocin release, AB serum", "assay_type": "in vitro ADME", "details": "10% human AB serum", "excerpt": "as §1"}}, "note": "“And” between values parts separate entries of the source, which are not always exact repeats. Equal values may be shown once."}
{"smiles": "CN(C)CCc1c[nH]c2cccc(OP(=O)(O)O)c12", "note": "[psilocybin, reference compound]", "values": [{"measurement": "Stability / conversion to psilocin in liver fractions", "setting": "[1]", "value": "stable in liver fractions with no conversion to psilocin"}, {"measurement": "Stability in assay buffer", "setting": "[2]", "value": "stability of psilocybin was confirmed in assay buffer"}, {"measurement": "tmax", "setting": "[3]; male, C57Bl/6, plasma, iv, 1 mg/kg i.v., individual animals, read-out: tmax of administered (parent) compound", "value": 5, "unit": "min"}, {"measurement": "Detectability of administered compound in plasma, i.v. administered animals", "setting": "[3]; 1 mg/kg i.v.", "value": "only detectable in i.v. administered animals"}, {"measurement": "Detectability of administered compound in plasma, orally administered animals", "setting": "[3]; oral, any dose (1, 3, 10 mg/kg)", "value": "not detectable in orally administered animals at any dose"}, {"measurement": "Plasma concentration of administered (parent) compound", "setting": "[3]; 1 mg/kg i.v., 5 min, individual animals, 1 mg/kg", "value": "19.7 ng/mL and 76.8 ng/mL and 334 ng/mL"}, {"measurement": "Plasma concentration of administered (parent) compound", "setting": "[3]; 1 mg/kg i.v., 0.25 h, individual animals, 1 mg/kg", "value": "3.32 ng/mL and 8.95 ng/mL and 27.2 ng/mL"}, {"measurement": "Plasma concentration of administered (parent) compound", "setting": "[3]; 1 mg/kg i.v., 0.5 h, individual animals, 1 mg/kg", "value": "No Peak and 2.35 ng/mL and 6.21 ng/mL"}, {"measurement": "Plasma concentration of administered (parent) compound", "setting": "[3]; 1 mg/kg i.v., 1 h, individual animals, 1 mg/kg", "value": "No Peak"}, {"measurement": "Plasma concentration of administered (parent) compound", "setting": "[3]; 1 mg/kg i.v., 2 h, individual animals", "value": "No Peak"}, {"measurement": "Plasma concentration of administered (parent) compound", "setting": "[3]; 1 mg/kg i.v., 4 h, individual animals", "value": "No Peak"}, {"measurement": "Plasma concentration of administered (parent) compound", "setting": "[3]; 1 mg/kg i.v., 6 h, individual animals", "value": "No Peak"}, {"measurement": "Plasma concentration of administered (parent) compound", "setting": "[3]; 1 mg/kg i.v., 8 h, individual animals, 1 mg/kg", "value": "No Peak"}, {"measurement": "tmax of administered (parent) compound", "setting": "[3]; 1 mg/kg i.v., individual animals", "value": 5, "unit": "min"}, {"measurement": "Cmax of administered (parent) compound", "setting": "[3]; 1 mg/kg i.v., individual animals, 1 mg/kg", "value": "19.7 ng/mL and 76.8 ng/mL and 334 ng/mL"}, {"measurement": "Cmax of administered (parent) compound", "setting": "[3]; 1 mg/kg i.v., mean ± SD", "value": "144 ± 167", "unit": "ng/mL"}, {"measurement": "tmax of administered (parent) compound", "setting": "[3]; 1 mg/kg i.v., mean ± SD", "value": "5 ± 0", "unit": "min"}, {"measurement": "Plasma concentration of psilocin", "setting": "[3]; prodrug 1.56 mg/kg oral (nominal 1 mg/kg), individual animals", "value": "BLQ (BLQ denotes below the lower limit of quantitation (0.2 ng/ml).)"}, {"measurement": "Plasma concentration of psilocin", "setting": "[3]; prodrug 3 mg/kg oral, individual animals", "value": "BLQ (BLQ denotes below the lower limit of quantitation (0.2 ng/ml).)"}, {"measurement": "Stability / conversion to psilocin in serum", "setting": "[4]", "value": "stable in serum with no conversion to psilocin"}]}
